Results reported in US8828983B2, “Macrocycles as factor XIa inhibitors” (Bristol-Myers Squibb Company, priority 2010, dated 2014).

Target: purified human Factor XIa (Homo sapiens (Human), UniProt P03951)
Sequence (P03951 388-625): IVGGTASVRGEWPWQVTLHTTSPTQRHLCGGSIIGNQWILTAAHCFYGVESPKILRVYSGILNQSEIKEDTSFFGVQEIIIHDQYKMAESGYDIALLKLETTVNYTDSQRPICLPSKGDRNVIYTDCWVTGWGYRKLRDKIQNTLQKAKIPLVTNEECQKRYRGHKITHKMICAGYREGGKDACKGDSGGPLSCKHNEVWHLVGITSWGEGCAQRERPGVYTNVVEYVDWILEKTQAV
Sequence (P03951 19-387 partner): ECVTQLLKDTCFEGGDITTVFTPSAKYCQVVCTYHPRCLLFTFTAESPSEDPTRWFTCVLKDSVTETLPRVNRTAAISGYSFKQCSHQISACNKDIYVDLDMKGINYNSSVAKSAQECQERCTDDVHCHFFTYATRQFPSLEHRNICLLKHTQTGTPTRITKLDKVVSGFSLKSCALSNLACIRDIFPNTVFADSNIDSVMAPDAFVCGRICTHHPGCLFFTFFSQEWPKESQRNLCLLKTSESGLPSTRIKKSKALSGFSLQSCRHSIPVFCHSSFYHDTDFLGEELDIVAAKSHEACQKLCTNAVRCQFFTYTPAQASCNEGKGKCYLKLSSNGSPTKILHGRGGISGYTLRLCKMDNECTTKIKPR
Test: Factor XIa assay (chromogenic substrate S-2366 hydrolysis, Ki)
Format: biochemical
Details: substrate S-2366, pH 7.4
Procedure: The effectiveness of compounds of the present invention as inhibitors of the coagulation Factors XIa, VIIa, IXa, Xa, XIIa, plasma kallikrein or thrombin, can be determined using a relevant purified serine protease, respectively, and an appropriate synthetic substrate. The rate of hydrolysis of the chromogenic or fluorogenic substrate by the relevant serine protease was measured both in the absence and presence of compounds of the present invention. […] A decrease in the rate of absorbance or fluorescence change in the presence of inhibitor is indicative of enzyme inhibition. Such methods are known to one skilled in the art. The results of this assay are expressed as the inhibitory constant, Ki.
Factor XIa determinations were made in 50 mM HEPES buffer at pH 7.4 containing 145 mM NaCl, 5 mM KCl, and 0.1% PEG 8000 (polyethylene glycol; JT Baker or Fisher Scientific). Determinations were made using purified human Factor XIa at a final concentration of 25-200 pM (Haematologic Technologies) and the synthetic substrate S-2366 (pyroGlu-Pro-Arg-pNA; CHROMOGENIX® or AnaSpec) at a concentration of 0.0002-0.001 M.
Values of Ki were determined by allowing the protease to react with the substrate in the presence of the inhibitor. Reactions were allowed to go for periods of 20-180 minutes (depending on the protease) and the velocities (rate of absorbance or fluorescence change versus time) were measured. The following relationships were used to calculate Ki values: (vo−vs)/vs=I/(Ki(1+S/Km)) for a competitive inhibitor with one binding site; or vs/vo=A+((B−A)/1+((IC50/(I)0))); and Ki=IC50/(1+S/Km) for a competitive inhibitor where: […]
In the case of O=C(/C=C/c1cc(Cl)ccc1-n1cnnn1)N[C@H]1C/C=C/CCOc2ccccc2-c2c[nH]c1n2 [Example 1, (E)-3-(5-Chloro-2-tetrazol-1-yl-phenyl)-N-(E)-(S)-8-oxa-16,18-diaza-tricyclo[13.2.1.0^2,7]octadeca-1(17),2,4,6,11,15(18)-hexaen-14-yl-acrylamide], the Ki is reported as 2980 nM.
With COC(=O)Nc1ccc2c(c1)NC(=O)CCCC[C@H](NC(=O)/C=C/c1cc(Cl)ccc1-n1cnnn1)c1nc-2c[nH]1 [Example 10, {(S)-14-[(E)-3-(5-Chloro-2-tetrazol-1-yl-phenyl)-acryloylamino]-9-oxo-8,16,18-triaza-tricyclo[13.2.1.0^2,7]octadeca-1(17),2,4,6,15(18)-pentaen-5-yl}-carbamic acid methyl ester] the Ki was < 5 nM.
For COC(=O)Nc1ccc2c(c1)NC[C@@H]1CCN(C1)C(=O)C[C@H](NC(=O)/C=C/c1cc(Cl)ccc1-n1cnnn1)c1nc-2c[nH]1 [Example 86], the Ki was 2390 nM.
Work on COC(=O)Nc1ccc2c(c1)CCCCc1cccc(c1)C[C@H](NC(=O)/C=C/c1cc(Cl)ccc1-n1cnnn1)c1nc-2c(Cl)[nH]1 [Example 102] yielded a Ki of 8.16 nM.
Work on COC(=O)Nc1ccc2c(c1)CCCCc1ccc(cc1)C[C@H](NC(=O)/C=C/c1cc(Cl)ccc1-n1cnnn1)c1nc-2c[nH]1 [Example 111] yielded a Ki of 71 nM.
In the case of COC(=O)Nc1ccc2c(c1)NC(=O)CCc1nc(ccc1F)CC(NC(=O)/C=C/c1cc(Cl)ccc1C(C)=O)c1nc-2c[nH]1 (centres unmarked) [Example 140, Methyl N-{3-[(2E)-3-(2-acetyl-5-chlorophenyl)prop-2-enamido]-19-fluoro-15-oxo-5,14,22,23-tetraazatetracyclo[16.3.1.1^4,7.0^8,13]tricosa-1(22),4(23),6,8,10,12,18,20-octaen-11-yl}carbamate], the Ki is reported as < 5 nM.
COC(=O)Nc1ccc2c(c1)NC(=O)CCc1nc(ccc1F)CC(NC(=O)c1c(F)cc(C)cc1F)c1nc-2c[nH]1 (centres unmarked) [Example 142, Methyl N-{3-[(2,6-difluoro-4-methylbenzene)amido]-19-fluoro-15-oxo-5,14,22,23-tetraazatetracyclo[16.3.1.1^4,7.0^8,13]tricosa-1(22),4(23),6,8,10,12,18,20-octaen-11-yl}carbamate] gave a Ki of 145 nM.
For COC(=O)Nc1ccc2c(c1)NC(=O)CCc1nc(ccc1F)CC(NC(=O)[C@H]1CC[C@H](C)CC1)c1nc-2c[nH]1 (some centres unmarked) [Example 143, Methyl N-{19-fluoro-3-[(4-methylcyclohexane)amido]-15-oxo-5,14,22,23-tetraazatetracyclo[16.3.1.1^4,7.0^8,13]tricosa-1(22),4(23),6,8,10,12,18,20-octaen-11-yl}carbamate], the Ki was 1310 nM.
COC(=O)Nc1ccc2c(c1)NC(=O)CCc1nc(ccc1F)CC(NC(=O)/C=C/c1cc(Cl)ccc1-n1cnnn1)c1nc-2cn1C (centres unmarked) [III-33] gave a Ki of 103 nM.

Test system: not given
Test: not given
Details: from C=CCCCc1ccccc1-c1cn(COCC[Si](C)(C)C)c([C@H](CC=C)NC(=O)OC(C)(C)C)n1; rcm bond; 12-membered ring; Grubbs II (0.4 eq)/pTsOH.H2O; DCM; 0.97 mM; 40.0 °C
CC(C)(C)OC(=O)N[C@H]1CC=CCCCc2ccccc2-c2cn(COCC[Si](C)(C)C)c1n2 showed a ring closure, isolated yield of 45.3%.

Same assay, conditions: from COC(=O)Nc1ccc(-c2cnc(C(Cc3ccc(F)c(CCC(=O)O)n3)NC(=O)OC(C)(C)C)o2)c(N)c1; amide bond; 14-membered ring; BOP/DMAP/DIEA; DCM/DMF; 1.1 mM; 25.0 °C; 16.0 h
Work on COC(=O)Nc1ccc2c(c1)NC(=O)CCc1nc(ccc1F)CC(NC(=O)OC(C)(C)C)C1=NC=C2O1 (centres unmarked) yielded a ring closure, isolated yield of 23%.
